Test results taken from patent US7109193B2, “Tricyclic diazepines tocolytic oxytocin receptor antagonists” (Wyeth, priority 2001, dated 2006).

These molecules were tested against T1, human vasopressin V1a receptor subtype (Homo sapiens, UniProt P37288) (assay: Vasopressin binding in Chinese Hamster Ovary cell membranes expressing human vasopressin V1a subtype receptors). Conditions: 100 nM, CHO cell membranes, [3H]Manning ligand, values without parentheses.
T1 construct: host or cells: CHO cells (pZeoSV vector for the Thibonnier line)
T1 sequence (P37288 whole entry): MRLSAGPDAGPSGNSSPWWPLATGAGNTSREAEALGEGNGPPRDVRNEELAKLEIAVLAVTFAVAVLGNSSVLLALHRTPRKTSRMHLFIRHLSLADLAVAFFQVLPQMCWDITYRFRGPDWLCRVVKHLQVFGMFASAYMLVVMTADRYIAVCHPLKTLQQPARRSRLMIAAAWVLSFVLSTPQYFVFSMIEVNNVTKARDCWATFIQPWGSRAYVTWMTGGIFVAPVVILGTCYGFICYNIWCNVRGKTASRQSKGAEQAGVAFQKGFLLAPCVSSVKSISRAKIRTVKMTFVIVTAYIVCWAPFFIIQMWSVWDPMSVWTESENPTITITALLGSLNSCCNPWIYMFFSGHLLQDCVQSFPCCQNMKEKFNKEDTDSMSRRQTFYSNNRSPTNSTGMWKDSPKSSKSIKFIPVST
Method in brief: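 Membranes from CHO cells expressing human V1a receptor were incubated with [3H]Manning ligand (added as 20 μL of 8 nM) in pH 7.4 Tris buffer with MgCl2, BSA and protease inhibitors, 60 min at room temperature. Bound radioactivity was counted after filtration; values are percent inhibition at a stated concentration or IC50.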

SMILES | inhibition at 0.1 µM [%]
Cc1ccccc1-c1ccc(C(=O)N2Cc3ccc(C(=O)N(C)CCCN(C)C)n3Cc3ccccc32)cc1 [Example 104, N-[3-(Dimethylamino)propyl]-N-methyl-10-[(2′-methyl[1,1′-biphenyl]-4-yl)carbonyl]-10,11-dihydro-5H-pyrrolo[2,1-c][1,4]benzodiazepine-3-carboxamide] | 85
COc1cc(C(=O)N2Cc3ccc(C(=O)N(C)CCN(C)C)n3Cc3ccccc32)ccc1-c1ccccc1C [Example 92, N-[2-(Dimethylamino)ethyl]-10-[(2-methoxy-2′-methyl[1,1′-biphenyl]-4-yl)carbonyl]-N-methyl-10,11-dihydro-5H-pyrrolo[2,1-c][1,4]benzodiazepine-3-carboxamide] | 78
Cc1ccccc1-c1ccc(C(=O)N2Cc3ccc(C(=O)N(C)CCCN(C)C)n3Cc3ccccc32)cc1C [Example 101, N-[3-(Dimethylamino)propyl]-10-[(2,2′-dimethyl[1,1′-biphenyl]-4-yl)carbonyl]-N-methyl-10,11-dihydro-5H-pyrrolo[2,1-c][1,4]benzodiazepine-3-carboxamide] | 75
COc1cccc(-c2ccc(C(=O)N3Cc4ccc(C(=O)N(C)CCCN(C)C)n4Cc4ccccc43)cc2C)c1 [Example 102, N-[3-(Dimethylamino)propyl]-10-[(3′-methoxy-2-methyl[1,1′-biphenyl]-4-yl)carbonyl]-N-methyl-10,11-dihydro-5H-pyrrolo[2,1-c][1,4]benzodiazepine-3-carboxamide] | 45
COc1cccc(-c2cc(OC)c(C(=O)N3Cc4ccc(C(=O)NCCCN(C)C)n4Cc4ccccc43)cc2Cl)c1 [Example 79, 10-[(6-Chloro-3,3′-dimethoxy[1,1′-biphenyl]-4-yl)carbonyl]-N-[3-(dimethylamino)propyl]-10,11-dihydro-5H-pyrrolo[2,1-c][1,4]benzodiazepine-3-carboxamide] | 0
COc1cc(C(=O)N2Cc3ccc(C(=O)NCCCN(C)C)n3Cc3ccccc32)ccc1-c1cccc2ccccc12 [Example 80, N-[3-(Dimethylamino)propyl]-10-[3-methoxy-4-(1-naphthyl)benzoyl]-10,11-dihydro-5H-pyrrolo[2,1-c][1,4]benzodiazepine-3-carboxamide] | 16
CN(C)CCCNC(=O)c1ccc2n1Cc1ccccc1N(C(=O)c1ccc(-c3cccc4ccccc34)cc1Cl)C2 [Example 83, 10-[2-Chloro-4-(1-naphthyl)benzoyl]-N-[3-(dimethylamino)propyl]-10,11-dihydro-5H-pyrrolo[2,1-c][1,4]benzodiazepine-3-carboxamide] | 8
CN(C)CCN(C)C(=O)c1ccc2n1Cc1ccccc1N(C(=O)c1ccc(-c3cccc4ccccc34)cc1Cl)C2 [Example 96, 10-[2-Chloro-4-(1-naphthyl)benzoyl]-N-[2-(dimethylamino)ethyl]-N-methyl-10,11-dihydro-5H-pyrrolo[2,1-c][1,4]benzodiazepine-3-carboxamide] | 10
COc1ccccc1-c1ccc(C(=O)N2Cc3ccc(C(=O)N(C)CCCN(C)C)n3Cc3ccccc32)cc1C [Example 100, N-[3-(Dimethylamino)propyl]-10-[(2′-methoxy-2-methyl[1,1′-biphenyl]-4-yl)carbonyl]-N-methyl-10,11-dihydro-5H-pyrrolo[2,1-c][1,4]benzodiazepine-3-carboxamide] | 27

Same assay, conditions: CHO cell membranes, [3H]Manning ligand, values in parentheses

SMILES | IC50 [nM]
COc1ccccc1-c1ccc(C(=O)N2Cc3ccc(C(=O)N4CCCN(C)CC4)n3Cc3ccccc32)cc1 [Example 61, {10-[(2′-Methoxy[1,1′-biphenyl]-4-yl)carbonyl]-10,11-dihydro-5H-pyrrolo[2,1-c][1,4]benzodiazepin-3-yl}(4-methyl-1,4-diazepan-1-yl)methanone] | 316
C=CCN1CCN(C(=O)c2ccc3n2Cc2ccccc2N(C(=O)c2ccc(-c4ccccc4OC)cc2)C3)CC1 [Example 221, (4-Allyl-1-piperazinyl){10-[(2′-methoxy[1,1′-biphenyl]4-yl)carbonyl]-10,11-dihydro-5H -pyrrolo[2,1-c][1,4]benzodiazepin-3-yl}methanone] | 818
COc1cc(-c2ccccc2C)c(Cl)cc1C(=O)N1Cc2ccc(C(=O)N(C)CCCN(C)C)n2Cc2ccccc21 [Example 98, 10-[(6-Chloro-3-methoxy-2′-methyl[1,1′-biphenyl]-4-yl)carbonyl]-N-[3-(dimethylamino)propyl]-N-methyl-10,11-dihydro-5H-pyrrolo[2,1-c][1,4]benzodiazepine-3-carboxamide] | 238
COc1cccc(-c2cc(OC)c(C(=O)N3Cc4ccc(C(=O)N(C)CCCN(C)C)n4Cc4ccccc43)cc2Cl)c1 [Example 99, 10-[(6-Chloro-3,3′-dimethoxy[1,1′-biphenyl]-4-yl)carbonyl]-N-[3-(dimethylamino)propyl]-N-methyl-10,11-dihydro-5H-pyrrolo[2,1-c][1,4]benzodiazepine-3-carboxamide] | 311
COc1cc(-c2ccccc2C)c(Cl)cc1C(=O)N1Cc2ccc(C(=O)N(C)CCN(C)C)n2Cc2ccccc21 [Example 86, 10-[(6-Chloro-3-methoxy-2′-methyl[1,1′-biphenyl]-4-yl)carbonyl]-N-[2-(dimethylamino)ethyl]-N-methyl-10,11-dihydro-5H-pyrrolo[2,1-c][1,4]benzodiazepine-3-carboxamide] | 172
COc1cc(C(=O)N2Cc3cccn3Cc3ccccc32)ccc1-n1c(C)ccc1C [Example 27, [4-(2,5-Dimethyl-1-H-pyrrol-1-yl)-3-methoxy-phenyl][10,11-dihydro-5H-pyrrolo[2,1-c][1,4]benzodiazepin-10-yl]methanone] | 45.6
COc1ccccc1-c1ccc(C(=O)N2Cc3ccc(C(=O)N4CCC(N5CCCCC5)CC4)n3Cc3ccccc32)cc1 [Example 111, {10-[(2′-Methoxy[1,1′-biphenyl]-4-yl)carbonyl]-10,11-dihydro-5H-pyrrolo[2,1-c][1,4]benzodiazepin-3-yl}[4-(1-piperidinyl)-1-piperidinyl]methanone] | 459
Cc1cc(C(=O)N2Cc3ccc(C(=O)N(C)CCCN(C)C)n3Cc3ccccc32)ccc1-c1ccccc1C(F)(F)F [Example 97, N-[3-(Dimethylamino)propyl]-N-methyl-10-{[2-methyl-2′-(trifluoromethyl)[1,1′-biphenyl]-4-yl]carbonyl}-10,11-dihydro-5H-pyrrolo[2,1-c][1,4]benzodiazepine-3-carboxamide] | 1090
COc1cc(C(=O)N2Cc3ccc(C(=O)N(C)CCN(C)C)n3Cc3ccccc32)ccc1-c1ccccc1C(F)(F)F [Example 22, N-Methyl-[N-(2-dimethylamino)ethyl]-10-{[2-methoxy-2′-trifluoromethyl-[1,1′-biphenyl]-4-yl]carbonyl}-10,11-dihydro-5H-pyrrolo[2,1-c][1,4]benzodiazepine-3-carboxamide] | 225
Cc1cc(C(=O)N2Cc3ccc(C(=O)N4CCCN(C)CC4)n3Cc3ccccc32)ccc1-c1ccccc1C(F)(F)F [Example 59, (4-Methyl-1,4-diazepan-1-yl)(10-{[2-methyl-2′-(trifluoromethyl)[1,1′-biphenyl]-4-yl]carbonyl}-10,11-dihydro-5H-pyrrolo[2,1-c][1,4]benzodiazepin-3-yl)methanone] | 1890
COc1ccccc1-c1ccc(C(=O)N2Cc3ccc(C(=O)N4CCN(CCN(C)C)CC4)n3Cc3ccccc32)cc1C [Example 195, {4-[2-(Dimethylamino)ethyl]-1-piperazinyl}{10-[(2′-methoxy-2-methyl[1,1′-biphenyl]-4-yl)carbonyl]-10,11-dihydro-5H-pyrrolo[2,1-c][1,4]benzodiazepin-3-yl}methanone] | 367
COc1cc(-c2ccccc2C)c(Cl)cc1C(=O)N1Cc2ccc(C(=O)N3CCN(C)CC3)n2Cc2ccccc21 [Example 47, {10-[(6-Chloro-3-methoxy-2′-methyl[1,1′-biphenyl]-4-yl)carbonyl]-10,11-dihydro-5H-pyrrolo[2,1-c][1,4]benzodiazepin-3-yl}(4-methyl-1-piperazinyl)methanone] | 1000
Cc1ccc(-c2ccc(C(=O)N3Cc4cccn4Cc4ccccc43)cc2)c2ccccc12 [Example 25, [4-(4-Methyl-naphthalen-1-yl)phenyl][10,11-dihydro-5H-pyrrolo[2,1-c][1,4]benzodiazepin-10-yl]methanone] | 131
COc1cc(-c2ccccc2C)c(Cl)cc1C(=O)N1Cc2ccc(C(=O)N3CCC(N4CCCC4)CC3)n2Cc2ccccc21 [Example 136, {10-[(6-Chloro-3-methoxy-2′-methyl[1,1′-biphenyl]-4-yl)carbonyl]-10,11-dihydro-5H-pyrrolo[2,1-c][1,4]benzodiazepin-3-yl}[4-(1-pyrrolidinyl)-1-piperidinyl]methanone] | 538
COc1ccccc1-c1ccc(C(=O)N2Cc3ccc(C(=O)N4CC[C@@H](N(C)C)C4)n3Cc3ccccc32)cc1C [Example 272, [(3R)-3-(Dimethylamino)pyrrolidinyl]{10-[(2′-methoxy-2-methyl[1,1′-biphenyl]-4-yl)carbonyl]-10,11-dihydro-5H-pyrrolo[2,1-c][1,4]benzodiazepin-3-yl}methanone] | 301
COc1cc(-c2ccccc2C)c(Cl)cc1C(=O)N1Cc2ccc(C(=O)N3CC[C@@H](N(C)C)C3)n2Cc2ccccc21 [Example 273, {10-[(6-Chloro-3-methoxy-2′-methyl[1,1′-biphenyl]-4-yl)carbonyl]-10,11-dihydro-5H-pyrrolo[2,1-c][1,4]benzodiazepin-3-yl}[(3R)-3-(dimethylamino)pyrrolidinyl]methanone] | 481
Cc1cc(C(=O)N2Cc3ccc(C(=O)NC(=N)N)n3Cc3ccccc32)ccc1-c1ccccc1C(F)(F)F [Example 8, N-[(10-{[2-methyl-2′-(trifluoromethyl)[1,1′-biphenyl]-4-yl]carbonyl}-10,11-dihydro-5H-pyrrolo[2,1-c][1,4]benzodiazepin-3-yl)carbonyl]guanidine] | 1370
